Test results as given in patent US20260130858A1, “LYOPHILIZED SOVATELTIDE-BASED INJECTABLE FORMULATION AND A PROCESS FOR PREPARATION” (PHARMAZZ, INC., priority 2023, published 2026).

Key:
[1] = Solution stability, related substances HPLC method validation (Method 1); conditions: standard solution at 5° C.; related substances Method 1
From the text: Chromatographic Parameters for method validation of Related Substance of Sovateltide Injection (Method 1): Method-1 utilizes chromatographic conditions to separate and quantify a specific compound of interest. The analytical column used is either the Xtimate C18 Column or the ChromCore 120 C18 Column, both with dimensions of 4.6×250 mm and 5 m. A Ghost Buster Column with dimensions of 4.6×50 mm is used to detect any unexpected peaks, which are usually called ghost peaks that may interfere with the results. The flow rate is set to 0.5 mL/min, with an injection volume of 90 μL. The detection wavelength is 215 nm, and the auto sampler temperature is maintained at 5° C. The column oven temperature is set to 50° C., and the run time for the method is 120 min. […] These parameters ensure the separation and accurate quantification of the compound in the sample.
• Mobile Phase A (KH2PO4+ Sodium Chloride in HPLC water). • Mobile Phase-B (Methanol).

[2] = tested on: acute cerebral ischemic stroke patients; test: Phase III study in acute cerebral ischemic stroke patients, modified Rankin Scale at day 90; assay type: in vivo, human; conditions: for Odds ratio, change in mRS of 2 or more / Odds ratio, mRS of 0-2 day 90 / Relative Risk, change in mRS of 2 or more / Relative Risk, mRS of 0-2 day 90: control vs sovateltide; for Modified Rankin Scale Day 90, mean: day 90 post-randomization; for Difference between means (B − A) ± SEM, Modified Rankin Scale Day 90: sovateltide minus control
Experimental: A prospective, multicentric, randomized phase III study was conducted in acute cerebral ischemic stroke patients aged 18 years through 78 years. Patients with radiologic confirmation of ischemic stroke could be enrolled if presenting up to 24 hours after the onset of symptoms and with a modified Rankin Score (mRS) of 3 to 4 and an NIHSS (National Institute of Health Stroke Scale) score of greater than 5. Patients with intracranial haemorrhage and those receiving endovascular therapy were excluded.
Patients were randomized in a 1:1 ratio, 80 patients to the sovateltide group and 78 patients to the control (saline) group. Every patient received the standard of care (SOC) and was followed for 90 days. The study drug (normal saline or sovateltide (0.3 μg/kg) was administered in three doses administered as an intravenous bolus over 1 minute at an interval of 3 hours±1 hour on day 1, day 3, and day 6 (total sovateltide dose of 0.9 μg/kg/day).
The primary objectives were to determine the neurological outcome based on modified Rankin Scale (mRS) score, National Institute of Health Stroke Scale (NIHSS) score, and Barthel Index (BI) scale score from day 1 through day 90. In addition, quality-of-Life was measured by EuroQol-EQ-5D (EQ-5D) and stroke-specific quality-of-life (SSQoL) scores at 60 days and 90 days of treatment.
A total of 158 patients with acute cerebral ischemic stroke were enrolled in this test, of which 137 completed 90-day follow-up. Patients received saline (n=70; 45 male and 25 female) or sovateltide (n=67; 45 male and 22 female) within 24 hours of the onset of stroke. Patients received the investigational drug […] at 16.85±0.74 and 17.40±0.67 hours (mean±SEM, p=0.583) of stroke onset in control and sovateltide cohorts, respectively. The baseline characteristics and SOC in both cohorts were similar.

[3] = with cerebrolysin, listed as sovateltide
[4] = with citicoline, listed as sovateltide
[5] = with mannitol, sovateltide group n=30
[6] = with mannitol, sovateltide group n=30, listed as sovateltide
[7] = with thrombolytics, listed as sovateltide

Substance: succinyl-(glutamyl(9)-alanyl(11,15))-endothelin-1 (8-21) [Sovateltide]
- Time standard solution is stable [1]: up to 60 Hours
- Number of patients with change in mRS < 2 from day 1 to day 90 ([2]; with cerebrolysin): 1
- Number of patients with mRS 0-2 day 90 ([2]; with cerebrolysin): 11
- Number of patients with mRS > 2 day 90 ([2]; with cerebrolysin): 1
- Number of patients, change in mRS of 2 or more from day 1 to day 90 (column head mRS > 2) ([2]; with cerebrolysin): 11
- Percentage of row total, change in mRS < 2 ([2]; with cerebrolysin): 8.33%
- Percentage of row total, change in mRS ≥ 2 ([2]; with cerebrolysin): 91.67%
- Percentage of row total, mRS 0-2 day 90 ([2]; with cerebrolysin): 91.67%
- Percentage of row total, mRS > 2 day 90 ([2]; with cerebrolysin): 8.33%
- Odds ratio, change in mRS of 2 or more ([2]; with cerebrolysin): 0.5455
- Odds ratio, mRS of 0-2 day 90 ([2]; with cerebrolysin): 0.8462
- Relative Risk, change in mRS of 2 or more ([2]; with cerebrolysin): 0.9351
- Relative Risk, mRS of 0-2 day 90 ([2]; with cerebrolysin): 0.8571
- Modified Rankin Scale Day 90, mean ([2]; with cerebrolysin, sovateltide group n=12): 0.7500
- Number of patients with mRS 0-2 day 90 [2, 3]: similar
- Number of patients, change in mRS of 2 or more from day 1 to day 90 (column head mRS > 2) [2, 3]: similar
- Difference between means (B − A) ± SEM, Modified Rankin Scale Day 90 ([2]; with cerebrolysin): −0.3214 ± 0.3517
- Number of patients with change in mRS < 2 from day 1 to day 90 ([2]; with citicoline): 5
- Number of patients with change in mRS ≥ 2 from day 1 to day 90 ([2]; with citicoline): 18
- Number of patients with mRS 0-2 day 90 ([2]; with citicoline): 21
- Number of patients with mRS > 2 day 90 ([2]; with citicoline): 3
- Percentage of row total, change in mRS < 2 ([2]; with citicoline): 21.74%
- Percentage of row total, change in mRS ≥ 2 ([2]; with citicoline): 78.26%
- Percentage of row total, mRS 0-2 day 90 ([2]; with citicoline): 87.50%
- Percentage of row total, mRS > 2 day 90 ([2]; with citicoline): 12.50%
- Odds ratio, change in mRS of 2 or more ([2]; with citicoline): 0.3283
- Odds ratio, mRS of 0-2 day 90 ([2]; with citicoline): 4.500
- Relative Risk, change in mRS of 2 or more ([2]; with citicoline): 0.6921
- Relative Risk, mRS of 0-2 day 90 ([2]; with citicoline): 3.130
- Modified Rankin Scale Day 90, mean ([2]; with citicoline, sovateltide group n=24): 1.208
- Modified Rankin Scale Day 90, mean ([2]; with citicoline, sovateltide group n=24, listed as sovateltide): significantly lower
- Number of patients with change in mRS ≥ 2 from day 1 to day 90 [2, 4]: significantly more
- Number of patients with mRS 0-2 day 90 [2, 4]: significantly more
- Difference between means (B − A) ± SEM, Modified Rankin Scale Day 90 ([2]; with citicoline): −0.7917 ± 0.3638
- Percentage of row total, change in mRS < 2 ([2]; with mannitol): 36.67%
- Percentage of row total, change in mRS ≥ 2 ([2]; with mannitol): 63.33%
- Percentage of row total, mRS 0-2 day 90 ([2]; with mannitol): 63.33%
- Percentage of row total, mRS > 2 day 90 ([2]; with mannitol): 36.67%
- Odds ratio, change in mRS of 2 or more ([2]; with mannitol): 0.3184
- Odds ratio, mRS of 0-2 day 90 ([2]; with mannitol): 2.735
- Relative Risk, change in mRS of 2 or more ([2]; with mannitol): 0.5603
- Relative Risk, mRS of 0-2 day 90 ([2]; with mannitol): 1.672
- Modified Rankin Scale Day 90, mean [2, 5]: 2.033
- Modified Rankin Scale Day 90, mean [2, 6]: significantly lower
- Number of patients with change in mRS < 2 from day 1 to day 90 [2, 5]: 11
- Number of patients with change in mRS ≥ 2 from day 1 to day 90 [2, 5]: 19
- Number of patients with mRS 0-2 day 90 [2, 5]: 19
- Number of patients with mRS > 2 day 90 [2, 5]: 11
- Number of patients with change in mRS ≥ 2 from day 1 to day 90 [2, 6]: significantly more
- Number of patients with mRS 0-2 day 90 [2, 6]: significantly more
- Difference between means (B − A) ± SEM, Modified Rankin Scale Day 90 ([2]; with mannitol): −0.7086 ± 0.3316
- Number of patients with change in mRS < 2 from day 1 to day 90 ([2]; with thrombolytics): 3
- Number of patients with change in mRS ≥ 2 from day 1 to day 90 ([2]; with thrombolytics): 6
- Number of patients with mRS 0-2 day 90 ([2]; with thrombolytics): 6
- Number of patients with mRS > 2 day 90 ([2]; with thrombolytics): 3
- Percentage of row total, change in mRS < 2 ([2]; with thrombolytics): 33.33%
- Percentage of row total, change in mRS ≥ 2 ([2]; with thrombolytics): 66.67%
- Percentage of row total, mRS 0-2 day 90 ([2]; with thrombolytics): 66.67%
- Percentage of row total, mRS > 2 day 90 ([2]; with thrombolytics): 33.33%
- Odds ratio, change in mRS of 2 or more ([2]; with thrombolytics): 0.7500
- Odds ratio, mRS of 0-2 day 90 ([2]; with thrombolytics): 1.333
- Relative Risk, change in mRS of 2 or more ([2]; with thrombolytics): 0.9000
- Relative Risk, mRS of 0-2 day 90 ([2]; with thrombolytics): 1.200
- Modified Rankin Scale Day 90, mean ([2]; with thrombolytics, sovateltide group n=9): 1.667
- Number of patients with change in mRS ≥ 2 from day 1 to day 90 [2, 7]: similar
- Number of patients with mRS 0-2 day 90 [2, 7]: similar
- Difference between means (B − A) ± SEM, Modified Rankin Scale Day 90 ([2]; with thrombolytics): −0.2833 ± 0.6321
